Series [1] is classed as in vivo, Sprague-Dawley rats. To be noted: male Sprague-Dawley rats, oral NHC 10 mg/kg. How it is done: β-d-N^4-hydroxycytidine (NHC) was dosed orally by gavage to male Sprague-Dawley rats (n=3) at 10 mg/kg in 3.9% citric acid and 96.1% water, pH 2.8; Molnupiravir at 12.7 mg/kg in 2.5% kolliphor RH 40, 10% polyethylene glycol 300 and 87.5% water, pH 5.3. […]
A short description of series [2]: in vitro. In kind it is in vitro ADME, Human. To be noted: 2 μM substrate, 1.0 mg/mL protein, pH 7.4. How it is done:
Duplicate aliquots of test compound or positive control substrate (GS-7340) were added to S9 stock diluted with 100 mM phosphate buffered saline, pH 7.4, to obtain a protein concentration of 1.0 mg/mL. The S9 metabolic reactions were initiated by the addition of the substrates to the S9 reaction mixture to a final concentration of 2 μM. At 0, 10, 20, 30, 60 and 120 min, 25 μL aliquots of the reaction mixture were transferred to plates containing 225 μl of IS/Q solution. After quenching, the plates were centrifuged at 3000×g for 30 minutes, and 150 μL aliquots of each supernatant were diluted with 150 μL water. Aliquots (10 μL) of the diluted supernatant were analyzed on a Thermo Q-Exactive mass spectrometer as described below.
Quantification of test compounds and controls was performed by analyte/internal standard peak area ratio (PAR) values measured on a Thermo Q-Exactive mass spectrometer coupled to a Dionex UltiMate 3000 HPLC with a Leap Technologies HTC PAL autosampler. The column used was a Thermo Hypersil GOLD (1.9 μm particle size, 2.1×50 mm). Mobile phase A consisted of 0.1% (v/v) formic acid in water. Mobile phase B consisted of 0.1% (v/v) formic acid in acetonitrile. Elution of analytes was achieved by a series of linear gradients of acetonitrile in water containing 0.1% (v/v) formic acid. The mass spectrometer was calibrated on a weekly basis and mass tolerance of 5 ppm was used.

For another series, the system named is RSV strain A2. In words: RSV antiviral assay (Hep2), EC50-Hep2/B1-384. It counts as cell-based. To be noted: human respiratory syncytial virus, HEp-2, 96 h; Hep2 cells, 4 days, Cell-Titer Glo.
In another series the test system is SARS-CoV-2-Nluc viruses. In words: microbe, parasite or virus in culture. In kind it is cell-based.
A short description of series [3]: in vitro. In kind it is cell-based. To be noted: human. How it is done: The cytotoxicity of compounds was determined in A549-hACE2 cells in the following manner. Compounds (200 nL) were spotted onto 384-well Grenier plates prior to seeding 5000 A549-hACE2 cells/well in a volume of 40 μL culture medium. The plates were incubated at 37° C. for 48 hours with 5% CO2. On day 2, 40 μL of CellTiter-Glo (Promega) was added and mixed 5 times.

For series [4], the system named is RSV-Fluc (Respiratory Syncytial virus strain A2 containing the firefly luciferase reporter). Description: microbe, parasite or virus in culture. To be noted: human respiratory syncytial virus, 72 h, NHBE cells, three days. It counts as cell-based.
Series [5] can be described thus: in vitro. The conditions noted are these: African green monkey.
Series [6] can be described thus: in vitro. To be noted: hamster.
Series [7] can be described thus: in vitro. To be noted: human, PrestoBlue.
[8] abbreviates: Severe acute respiratory syndrome coronavirus 2, 48 h; read-out: SARS-CoV2 EC50.

pEC50: −log10 of the molar value. Read-outs that look alike come from different tables or passages of the source.

In general, Cmax refers to the peak of the concentration-time curve.

In the case of `O=c1nc(NO)ccn1[C@@H]1O[C@H](CO)[C@@H](O)[C@H]1O` [NHC, β-d-N^4-hydroxycytidine], the “NHC AUCinf.” value in [1] (plasma) stood at 8.48 µM·h. Besides, the Cmax in series [1] (plasma, read-out: NHC Cmax) was found to be 3.13 µM. Also, in series [1], the “NHC F % (based on NHC mg-eq dose)” value is 37.0%. Further, the “Human GI S9 T1/2” value in the series “in vitro [2]” is >11.7 h.
For `N#C[C@@]1(c2ccc3c(N)ncnn23)O[C@H](COC(=O)C2CCCCCC2)[C@@H](O)[C@H]1O` [Compound 29, ((2R,3S,4R,5R)-5-(4-aminopyrrolo[2,1-f][1,2,4]triazin-7-yl)-5-cyano-3,4-dihydroxytetrahydrofuran-2-yl)methyl cycloheptanecarboxylate], the pEC50 in the series with RSV strain A2 was 6.71; in the series on SARS-CoV-2-Nluc viruses (setting [8]), 6.52; in [4], 5.58. Further, the CC50 at 48 h in “in vitro [3]” came to 38 µM.
As to `CCC(CC)COC(=O)[C@H](C)N[P@](=O)(OC[C@H]1O[C@@](C#N)(c2ccc3c(N)ncnn23)[C@H](O)[C@@H]1O)Oc1ccccc1` [Remdesivir], the pEC50 with SARS-CoV-2-Nluc viruses (Severe acute respiratory syndrome coronavirus 2; host cells A549-ACE2; read-out: EC50, WA1/2020-nano luciferase) was 7.17. In addition, the CC50 in the series “in vitro [3]” (host cells A549-ACE2, read-out: CC50, A549-ACE2) was > 16.7 µM; in “in vitro [5]”, > 100 µM; in the series “in vitro [6]”, > 100 µM; in the series “in vitro [7]” (CC50, DF2 HAE, primary diseased (asthma) HAE donor DF2, 72 hours), > 33 µM; in “in vitro [7]” (CC50, M2 HAE, primary HAE donor M2, 72 hours) it was 102 µM; in the series “in vitro [7]” (CC50, M6 HAE, primary HAE donor M6, 72 hours), > 100 µM.
Turning to `N#C[C@@]1(c2ccc3c(N)ncnn23)O[C@H](COC(=O)C2CCCC2)[C@@H](O)[C@H]1O` [Compound 28, ((2R,3S,4R,5R)-5-(4-aminopyrrolo[2,1-f][1,2,4]triazin-7-yl)-5-cyano-3,4-dihydroxytetrahydrofuran-2-yl)methyl cyclopentanecarboxylate], the pEC50 in the series with RSV strain A2 was 6.57; with SARS-CoV-2-Nluc viruses (setting [8]) it was 6.37; in series [4], 5.75. The same compound had a CC50 at 48 h in the series “in vitro [3]” of 40 µM.
On to `CCCC(CCC)C(=O)OC[C@H]1O[C@@](C#N)(c2ccc3c(N)ncnn23)[C@H](O)[C@@H]1O` [Compound 18, ((2R,3S,4R,5R)-5-(4-aminopyrrolo[2,1-f][1,2,4]triazin-7-yl)-5-cyano-3,4-dihydroxytetrahydrofuran-2-yl)methyl 2-propylpentanoate], for which the pEC50 is 6.76 in the series with RSV strain A2; 6.03 in the series on SARS-CoV-2-Nluc viruses (Severe acute respiratory syndrome coronavirus 2, 48 h, read-out: SARS-CoV2 EC50); 6.65 in series [4]. In addition, the CC50 at 48 h in the series “in vitro [3]” is > 10 µM.
`CC(C)[C@H](N)C(=O)OC[C@H]1O[C@@](C#N)(c2ccc3c(N)ncnn23)[C@H](O)[C@@H]1O` [Compound 8, ((2R,3S,4R,5R)-5-(4-aminopyrrolo[2,1-f][1,2,4]triazin-7-yl)-5-cyano-3,4-dihydroxytetrahydrofuran-2-yl)methyl L-valinate]: the pEC50 was 6.04 with RSV strain A2, 5.57 in the series on SARS-CoV-2-Nluc viruses (setting [8]) and < 5.30 in series [4]. For the same compound, the CC50 at 48 h in the series “in vitro [3]” was > 100 µM.
The like results for `CC(C)(C)C(=O)OC[C@H]1O[C@@](C#N)(c2ccc3c(N)ncnn23)[C@H](O)[C@@H]1O` [Compound 32, ((2R,3S,4R,5R)-5-(4-aminopyrrolo[2,1-f][1,2,4]triazin-7-yl)-5-cyano-3,4-dihydroxytetrahydrofuran-2-yl)methyl pivalate] were, in that order, 6.23, 5.63, 6.24 and > 50 µM.
For `CCCCCC(=O)OC[C@H]1O[C@@](C#N)(c2ccc3c(N)ncnn23)[C@H](O)[C@@H]1O` [Compound 31, ((2R,3S,4R,5R)-5-(4-aminopyrrolo[2,1-f][1,2,4]triazin-7-yl)-5-cyano-3,4-dihydroxytetrahydrofuran-2-yl)methyl hexanoate] the same measures were 6.70, 6.49, 5.56 and 24 µM.
The like results for `N#C[C@@]1(c2ccc3c(N)ncnn23)O[C@H](COC(=O)C2CC3(CCC3)C2)[C@@H](O)[C@H]1O` [Compound 27, ((2R,3S,4R,5R)-5-(4-aminopyrrolo[2,1-f][1,2,4]triazin-7-yl)-5-cyano-3,4-dihydroxytetrahydrofuran-2-yl)methyl spiro[3.3]heptane-2-carboxylate] were, in that order, 6.61, 6.25, 5.83 and > 10 µM.
`CCCCCCCC(=O)OC[C@H]1O[C@@](C#N)(c2ccc3c(N)ncnn23)[C@H](O)[C@@H]1O` [Compound 20, ((2R,3S,4R,5R)-5-(4-aminopyrrolo[2,1-f][1,2,4]triazin-7-yl)-5-cyano-3,4-dihydroxytetrahydrofuran-2-yl)methyl octanoate]: the values for the pEC50 (in the series on RSV strain A2; with SARS-CoV-2-Nluc viruses (setting [8]); in series [4]) were 6.57, 6.21 and 6.08, respectively. Also, in the series “in vitro [3]”, the CC50 at 48 h is > 10 µM.
The like results for `N#C[C@@]1(c2ccc3c(N)ncnn23)O[C@H](COC(=O)C2CCCCC2)[C@@H](O)[C@H]1O` [Compound 17, ((2R,3S,4R,5R)-5-(4-aminopyrrolo[2,1-f][1,2,4]triazin-7-yl)-5-cyano-3,4-dihydroxytetrahydrofuran-2-yl)methyl cyclohexanecarboxylate] were, in that order, 6.67, 6.10, 5.93 and > 10 µM.
For `N#C[C@@]1(c2ccc3c(N)ncnn23)O[C@H](COC(=O)C2CCC2)[C@@H](O)[C@H]1O` [Compound 26, ((2R,3S,4R,5R)-5-(4-aminopyrrolo[2,1-f][1,2,4]triazin-7-yl)-5-cyano-3,4-dihydroxytetrahydrofuran-2-yl)methyl cyclobutanecarboxylate] the same measures were 6.47, 5.92, 5.96 and > 10 µM.

The record behind these values is US11926645B2, “Compounds and methods for treatment of viral infections” (priority 2020, dated 2024).
